Assays:
Type in all cases: in vitro ADME
[1] = Plasma protein binding (PPB); conditions: rat, read-out: plasma protein binding, unbound
Text: (§1) As pretargeting is a 2-component system, an ^18F-Tz was developed to be CNS-penetrant based on cnsPET-MPO modeling (Zhang, L., et al. (2018). J Med Chem 61(8): 3296-3308).

[2] = Brain protein binding (BPB); conditions: rat, brain tissue (brain protein binding)
Text: as §1

[3] = target: T1, BCRP (Homo sapiens, UniProt Q9UNQ0); experiment: in vitro; conditions: dog
T1 construct: expressed in transfected cells; host or cells: MDCK (canine kidney) cells expressing BCRP
T1 sequence (Q9UNQ0 1-655): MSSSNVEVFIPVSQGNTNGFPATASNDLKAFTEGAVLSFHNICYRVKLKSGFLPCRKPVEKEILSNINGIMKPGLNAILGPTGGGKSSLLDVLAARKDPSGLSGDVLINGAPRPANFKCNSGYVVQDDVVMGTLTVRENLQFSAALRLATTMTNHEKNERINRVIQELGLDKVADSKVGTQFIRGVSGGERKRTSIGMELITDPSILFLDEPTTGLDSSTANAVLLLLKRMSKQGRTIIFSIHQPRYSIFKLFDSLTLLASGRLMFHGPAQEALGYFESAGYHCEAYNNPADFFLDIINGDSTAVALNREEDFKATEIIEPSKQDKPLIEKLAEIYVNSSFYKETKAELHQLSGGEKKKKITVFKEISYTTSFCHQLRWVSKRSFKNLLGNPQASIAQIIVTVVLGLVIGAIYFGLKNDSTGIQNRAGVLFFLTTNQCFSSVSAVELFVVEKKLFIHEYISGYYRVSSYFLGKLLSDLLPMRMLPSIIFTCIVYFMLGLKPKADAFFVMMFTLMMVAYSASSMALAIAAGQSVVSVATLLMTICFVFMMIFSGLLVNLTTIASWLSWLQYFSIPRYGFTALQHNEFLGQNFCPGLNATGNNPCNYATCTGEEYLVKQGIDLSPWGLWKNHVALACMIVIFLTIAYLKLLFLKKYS
Text: as §1

[4] = target: T2, P-gp (Homo sapiens, UniProt P08183); experiment: MDCK-P-gp cell model of permeability (efflux ratio); conditions: dog, MDCK-MDR1
T2 construct: expressed in transfected cells; host or cells: MDCK (canine kidney) cells expressing P-gp
Text: as §1

T2 sequence (P08183 whole entry): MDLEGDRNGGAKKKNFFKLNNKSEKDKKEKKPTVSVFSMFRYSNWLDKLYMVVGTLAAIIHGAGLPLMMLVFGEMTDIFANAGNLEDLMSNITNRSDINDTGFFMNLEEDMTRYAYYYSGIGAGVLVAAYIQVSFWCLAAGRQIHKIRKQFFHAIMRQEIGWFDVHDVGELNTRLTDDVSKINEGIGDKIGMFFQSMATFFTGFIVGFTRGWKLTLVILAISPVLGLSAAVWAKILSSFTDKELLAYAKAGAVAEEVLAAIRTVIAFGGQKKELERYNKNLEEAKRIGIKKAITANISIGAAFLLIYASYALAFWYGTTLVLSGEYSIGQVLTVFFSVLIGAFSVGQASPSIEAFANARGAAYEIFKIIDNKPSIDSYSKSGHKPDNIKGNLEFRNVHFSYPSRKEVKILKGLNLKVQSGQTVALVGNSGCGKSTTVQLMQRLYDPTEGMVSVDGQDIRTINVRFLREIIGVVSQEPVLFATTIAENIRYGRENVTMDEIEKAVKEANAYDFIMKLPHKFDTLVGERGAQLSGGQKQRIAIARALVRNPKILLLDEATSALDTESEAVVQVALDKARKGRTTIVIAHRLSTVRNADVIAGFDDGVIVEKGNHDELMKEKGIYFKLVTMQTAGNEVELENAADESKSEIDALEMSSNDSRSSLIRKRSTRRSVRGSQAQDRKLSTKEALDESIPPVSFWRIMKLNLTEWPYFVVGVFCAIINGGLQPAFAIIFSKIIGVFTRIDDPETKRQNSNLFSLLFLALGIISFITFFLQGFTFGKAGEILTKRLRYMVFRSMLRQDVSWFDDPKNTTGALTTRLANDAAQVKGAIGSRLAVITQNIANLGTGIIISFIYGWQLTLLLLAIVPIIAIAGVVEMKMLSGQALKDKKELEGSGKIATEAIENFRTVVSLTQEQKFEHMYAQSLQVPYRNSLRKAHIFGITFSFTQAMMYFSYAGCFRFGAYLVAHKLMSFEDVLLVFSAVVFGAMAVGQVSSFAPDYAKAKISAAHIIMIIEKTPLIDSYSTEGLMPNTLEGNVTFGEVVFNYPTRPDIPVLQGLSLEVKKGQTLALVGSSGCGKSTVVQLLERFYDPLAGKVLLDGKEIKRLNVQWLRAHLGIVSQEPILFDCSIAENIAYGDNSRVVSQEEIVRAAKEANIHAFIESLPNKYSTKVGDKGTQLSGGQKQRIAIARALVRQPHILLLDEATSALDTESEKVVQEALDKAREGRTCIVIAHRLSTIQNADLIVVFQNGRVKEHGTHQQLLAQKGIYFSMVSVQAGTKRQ

For `O=C(Cc1ccc(-c2nncnn2)cc1)NCCF` [Compound 1′, 2-(4-(1,2,4,5-tetrazin-3-yl)phenyl)-N-(2-fluoroethyl)acetamide], the fraction unbound [1] was 0.69, the fraction unbound [2] was 0.51 and the efflux ratio [3] was 0.51. For the same compound, the efflux ratio [4] was 1.71.
